According to patent publication US9113629B2, “4-amino-6-(4-substituted-phenyl)-picolinates and 6-amino-2-(4-substituted-phenyl)-pyrimidine-4-carboxylates and their use as herbicides” (DOW AGROSCIENCES LLC, priority 2013, dated 2015):

Key:
LOLSS = experiment: Pre-emergent Test III, preemergent activity in wheat and barley; assay type: in vivo, Lolium multiflorum, Lolium rigidum
Protocol: Pre-emergent Test III. Seeds of test species were planted into square plastic pots (10 cm wide) containing sandy loam soil. After planting, all pots were sub-irrigated 16 h prior to compound application. A weighed amount, determined by the highest rate to be tested, of each test compound was placed in a 25 mL glass vial and was dissolved in 4 mL of a 97:3 v/v mixture of acetone and DMSO to obtain concentrated stock solutions. […] The concentrated stock solutions obtained were diluted with 20 mL of an aqueous mixture containing water and 0.02% w/v (weight/volume) of Triton X-155 to obtain spray solutions containing the highest application rates. Additional application rates were obtained by serial dilution of 12 mL of the high rate solution into a solution containing 2 mL of 97:3 v/v mixture of acetone and DMSO and 10 mL of an aqueous mixture containing water and 0.02% w/v (weight/volume) of Triton X-155 to obtain 1⁄2×, 1⁄4×, 1⁄8× and 1/16× rates of the high rate. Compound requirements are based upon a 12 mL application volume at a rate of 187 liters per hectare (L/ha). Formulated compounds were applied to the soil surface with an overhead Mandel track sprayer equipped with […] nozzles calibrated to deliver 187 L/ha over an application area of 0.503 square meters. Control pots were sprayed in the same manner with the solvent blank. The treated pots and control pots were placed in a greenhouse as described above and watered through surface irrigation. After 21 d, the condition of the test pots as compared with that of the untreated pots was determined visually and scored on a scale of 0 to 100 percent where 0 corresponds to no herbicidal effect and 100 corresponds to plant death or lack of emergence from the soil. By applying the well-accepted probit analysis as described by J. Berkson in Journal of the American Statistical Society, 48, 565 (1953) and by D. Finney in “Probit Analysis” Cambridge University Press (1952), the above data can be used to calculate GR20, GR50, GR80 and GR90 values, which are defined as growth reduction factors that correspond to the effective dose of herbicide required to kill or control 20 percent, 50 percent, 80 percent or 90 percent, respectively, of a target plant.

LAMSS = experiment: Post-emergent Test III, herbicidal activity in wheat and barley; assay type: in vivo; conditions: for pest or weed control at 35 g/ha: 35 g ai/ha; for pest or weed control at 70 g/ha: 70 g ai/ha; for GR50 LAMSS / GR80 LAMSS: probit analysis, 21 days after application; for GR50 LAMSS: dose for growth reduction of 50 percent; for GR80 LAMSS: dose for growth reduction of 80 percent
How it was run: (§1)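 GR20, GR50, GR80 and GR90 come from probit analysis of visual injury scores (0 = none, 100 = complete kill) taken 21 d after treatment. Foliar application was by track sprayer delivering 187 L/ha at five rates, from high down to 1/16×, onto greenhouse plants at the 2–3 leaf stage, with solvent-blank controls.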

[1] = tested on: ALOMY: black-grass (Alopecurus myosuroides); experiment: as above; assay type: in vivo; conditions: for pest or weed control at 35 g/ha: 35 g ai/ha; for pest or weed control at 70 g/ha: 70 g ai/ha; for GR50 ALOMY / GR80 ALOMY: probit analysis, 21 days after application; for GR50 ALOMY: dose for growth reduction of 50 percent; for GR80 ALOMY: dose for growth reduction of 80 percent
How it was run: as §1

[2] = post-emergence, 504 h, read-out: Visual Growth Reduction (%) 21 Days After Application LAMSS
[3] = Alopecurus myosuroides, post-emergence, 504 h, read-out: Visual Growth Reduction (%) 21 Days After Application ALOMY

Compound: COC(=O)c1nc(-c2ccc(Br)c(F)c2)c(F)c(N)c1Cl [Compound 49]
- Visual Growth Reduction (%) 21 Days After Application, LOLSS (LOLSS; 35 g ai/ha): G (0-29)
- Visual Growth Reduction (%) 21 Days After Application, LOLSS (LOLSS; 70 g ai/ha): G (0-29)
- GR50 LOLSS (LOLSS; 21 days after application, dose to kill or control 50%, probit analysis): >70 g ai/ha
- GR80 LOLSS (LOLSS; 21 days after application, dose to kill or control 80%, probit analysis): >70 g ai/ha

Compound: Nc1c(F)c(-c2ccc(C(F)(F)F)c(F)c2F)nc(C(=O)O)c1Cl [Compound 167]
- pest or weed control at 35 g/ha (LAMSS; [2]): 95 to 100%
- pest or weed control at 70 g/ha (LAMSS; [2]): 95 to 100%
- GR50 LAMSS (LAMSS): 1 g ai/ha
- GR80 LAMSS (LAMSS): 1 g ai/ha
- pest or weed control at 35 g/ha [1, 3]: 30 to 44%
- pest or weed control at 70 g/ha [1, 3]: 60 to 74%
- GR50 ALOMY [1]: 57 g ai/ha
- GR80 ALOMY [1]: 119 g ai/ha

Compound: COC(=O)c1nc(-c2ccc(Cl)c(F)c2)c(F)c(N)c1Cl [Compound 216]
- pest or weed control at 35 g/ha (LAMSS; [2]): 95 to 100%
- pest or weed control at 70 g/ha (LAMSS; [2]): 95 to 100%
- pest or weed control at 140 g/ha (LAMSS; post-emergence, 504 h, 140 g ai/ha, read-out: Visual Growth Reduction (%) 21 Days After Application LAMSS): 95 to 100%
- GR50 LAMSS (LAMSS): 1 g ai/ha
- GR80 LAMSS (LAMSS): 1 g ai/ha
- pest or weed control at 35 g/ha [1, 3]: 45 to 59%
- pest or weed control at 70 g/ha [1, 3]: 60 to 74%
- pest or weed control at 140 g/ha ([1]; Alopecurus myosuroides, post-emergence, 504 h, 140 g ai/ha, read-out: Visual Growth Reduction (%) 21 Days After Application ALOMY): 75 to 84%
- GR50 ALOMY [1]: 54 g ai/ha
- GR80 ALOMY [1]: >140 g ai/ha
